Reference: patent EP1649856A2, “Use of pimecrolimus for selective immunomodulation” (Novartis AG, priority 2001, dated 2002)

Legend:
[1] = test system: allergic contact dermatitis (ACD); test: Rat ACD model; format: in vivo
[2] = Clinical study of oral pimecrolimus in psoriasis patients (efficacy and safety)
Procedure: A clinical study was initiated with an oral formulation of pimecrolimus to treat psoriatic patients. Pimecrolimus was evaluated as treatment for psoriasis using an oral dose of 60 mg (30 mg b.i.d) during a 4-week clinical study. The cohort included 10 patients; 8 received the treatment and 2 received a placebo.
The dose used in the study was 60 mg/day, given as 30 mg b.i.d. To make this dose the 20 mg tablets were cut in half using a special cutter (Tablettenteiler NR.96) so as to obtain 30 mg of pimecrolimus or a matched amount of placebo.

[3] = test system: mixed-lymphocyte reaction; test: mixed-lymphocyte reaction (MLR) assay; format: cell-based; settings: Mus musculus
Text: In addition to the IL-2 reporter gene assay, the concentration of immunosuppressants, such as pimecrolimus and FK506 can be measured by the mixed-lymphocyte reaction (see Meo, The MLR in the Mouse", Immunological Methods, Lefkovits and Pemis, Eds., p. 227 Academic Press, NY).

blood cells = settings: 30 mg b.i.d. oral
Procedure: Pimecrolimus was evaluated as treatment for psoriasis using an oral dose of 60 mg (30 mg b.i.d) during a 4-week clinical study. The cohort included 10 patients; 8 received the treatment and 2 received a placebo. Blood samples were collected before the first administration to establish the gene expression baseline and on days 13 or 14 after treatment with pimecrolimus or placebo and submitted to gene expression analysis in order to gain insights into the mechanisms of action of the compound.
The RNA from blood samples drawn from each patient in the study was extracted and tested on individual DNA microarrays, thus allowing, for each patient, a comparison of gene expression before and after pimecrolimus treatment. […] Genes that were consistently modulated were sorted in functional categories.

[4] = Pharmacokinetics after multiple oral administrations to psoriatic patients for 28 days; format: in vivo, human
Procedure: Table 4. Summary of Cmax and AUCτ Following Multiple Oral Administrations of Pimecrolimus to Psoriatic Patients for 28 Days
In this study pimecrolimus was rapidly absorbed with a median tmax across all the dose groups and collection days of between 0.8 and 2.0 hours. […] There was no effect of age or weight on the apparent clearance of pimecrolimus.

[5] = format: in vitro ADME, human
Text: Pimecrolimus, when applied topically, permeates less through human (and animal) skin than, for example, FK506 and corticosteroids by factors of 9 and 60-120, respectively, indicating a lower potential to enter the systemic circulation and thus to exert systemic side effects. As is well-known, glucocorticoids are non-selective agents and are therefore associated with many systemic actions and a wide variety of side effects, whether applied topically or systemically. This is in contrast to pimecrolimus.

[6] = test system: SCID mice reconstituted with CD4^+CD45RB^HI T cells; test: SCID-IBD mouse model, treatment from day 1 for 4 weeks; format: in vivo; settings: for loss of original BW: 4 weeks post-T cell transfer (controls lost 15-18%); for colitis, histological inflammation of colon (score 0-8): 29 days
Text: A well-established animal model for IBD exists (see Leach et al., Am. J. Pathol., Vol. 148, No. 5, pp. 1503-1515 (1996), and Powrie et al., Int. Immunol., Vol. 5, No. 11, pp. 1461-1471 (1993)). It is known that the transfer of syngeneic, naive T lymphocytes (CD4^+CD45RB^HI) into SCID mice results in a severe colitis and wasting disease, SCID-IBD. Histopathologically, features of both CD and UC are represented in this model which has been used throughout the 1990s to bring the understanding of the pathoetiology of this disease of immune dysregulation in man to its present status. There is no other animal model of IBD which is considered relevant for the human disease, both in mechanism and in validity of clinical treatment.
In this study, SCID mice reconstituted with CD4^+CD45RB^HI T lymphocytes were used. These mice are known to develop chronic colitis with characteristics similar to human IBD, as described above.
In this study, SCID mice were reconstituted with 2 x 10^5 CD4^+CD45RB^HI T cells and then treated with pimecrolimus (30, 60 and 100 mg/kg/day) or vehicle daily p.o. for 4 weeks. […] BW was monitored throughout. On termination, blood was withdrawn, spleen, mesenteric lymph nodes (MLN) and colon were removed. Serum haptoglobin levels were measured (ELISA), colitis was assessed histologically and lymphocyte and neutrophil numbers were calculated from FACS analysis of blood, spleen and MLN cell suspensions.
In order to determine the efficacy of ASM981 treatment in preventing intestinal mucosal damage in SCID-IBD mice, a histological examination of the colon sections was performed according to defined morphological parameters. All colon sections were assessed according to a scheme awarding degrees of severity governed by the extent of cell infiltration and inflammation with a score of 8 being the maximum.

[7] = test system: eosinophil influx into the lungs; test: Aeroallergen induced eosinophil influx into the lungs of sensitized mice; format: in vivo; settings: oral administration
Text: Direct evidence on the efficacy on pimecrolimus in asthma is provided by studies showing the effect on lung eosinophilia rats. One study looked at the inhibitory effect of pimecrolimus on the aeroallergen induced eosinophil influx into the lungs of sensitized mice.

pulmonary eosinophilia = test: Antigen-induced pulmonary eosinophilia in actively sensitized rats; format: in vivo, Brown Norway Rats; settings: given orally as a microemulsion or dissolved in Neoral placebo
Text: Another study looked at the effects of oral administration of pimecrolimus on antigen-induced pulmonary eosinophilia in actively sensitized Brown Norway Rats.

[8] = 20 mg b.i.d. oral, Day 13, Mean ± SD, 18720 min
[9] = 20 mg b.i.d. oral, Day 28, Mean ± SD, 40320 min
[10] = human, blood, 5 mg q.d. oral, Day 1, Mean ± SD
[11] = human, blood, 5 mg q.d. oral, Day 13, Mean ± SD
[12] = human, blood, 5 mg q.d. oral, Day 28, Mean ± SD
[13] = human, blood, 10 mg q.d. oral, Day 1, Mean ± SD
[14] = human, blood, 10 mg q.d. oral, Day 28, Mean ± SD
[15] = human, blood, 20 mg q.d. oral, Day 13, Mean ± SD
[16] = human, blood, 20 mg q.d. oral, Day 28, Mean ± SD
[17] = human, blood, 30 mg b.i.d. oral, Day 1, Mean ± SD
[18] = human, blood, 30 mg b.i.d. oral, Day 13, Mean ± SD
[19] = human, blood, 30 mg b.i.d. oral, Day 28, Mean ± SD
[20] = dose range 30-100 mg/kg/day p.o.

Structure (SMILES): CC[C@@H]1/C=C(\C)C[C@H](C)C[C@H](OC)[C@H]2O[C@@](O)(C(=O)C(=O)N3CCCC[C@H]3C(=O)O[C@H](/C(C)=C/[C@@H]3CC[C@H](Cl)[C@H](OC)C3)[C@H](C)[C@@H](O)CC1=O)[C@H](C)C[C@@H]2OC [pimecrolimus, 33-epichloro-33-desoxy-ascomycin]
- efficacy compared with FK506 ([1]; oral, same doses, rat ACD model): superior
- efficacy relative to oral CyA ([1]; rat ACD (12.5 mg/kg pimecrolimus similar to 50 mg/kg CyA)): 4 fold
- clinical effect on psoriasis ([2]; oral 60 mg (30 mg b.i.d), 4-week study, 8 treated patients): reduction of psoriasis
- tolerability in man ([2]; oral dosing up to 60 mg (or 30 mg b.i.d.) over 28 days): well-tolerated
- IC50 [3]: 9 nM
- toxic effect in the expression profile (blood cells): No obvious toxic effect
- expression of genes involved in asthma and IBD (RANTES, GALECTIN-3, Thromboxane A2 receptor, Glutathione peroxidase) (blood cells; days 13 or 14 vs baseline): specifically and significantly down-regulated
- expression of inflammatory mediators (Leukotriene A4 hydrolase, prostaglandin endoperoxide synthase) (blood cells; days 13 or 14 vs baseline): strongly down regulate
- AUCτ,b ([4]; 20 mg b.i.d. oral, Day 1, Mean ± SD, 1440 min): 139.9 ± 39.2 ng·h/mL
- AUCτ,b [4, 8]: 259.6 ± 122.6 ng·h/mL
- Cmax,b [4, 8]: 54.7 ± 36.3 ng/mL
- AUCτ,b [4, 9]: 229.5 ± 90.9 ng·h/mL
- Cmax,b [4, 9]: 41.7 ± 16.5 ng/mL
- mean AUC at steady-state over 24 hours ([4]; 30 mg b.i.d., day 28, calculated assuming identical AUCτ for morning and evening doses): ~562 ng·h/mL
- AUC at 24 h ([4]; human, blood, po, 30 mg b.i.d., day 13, calculated assuming identical AUCτ for morning and evening doses, read-out: mean AUC at steady-state over 24 hours): ~590 ng·h/mL
- Tmax ([4]; human, blood, po, across all the dose groups and collection days, read-out: median tmax): 0.8 to 2 h
- concentration at 504 h ([4]; human, blood, po, day 21 of the 30 mg BID dose schedule, read-out: highest median blood trough concentration): 18 ng/mL
- half-life ([4]; human, blood, po, recorded after the final dose, read-out: terminal half-life): 50 to 100 h
- AUC tau at 24 h [4, 10]: 23.3 ± 13 ng·h/mL
- Cmax at 24 h [4, 10]: 8.7 ± 2.3 ng/mL
- AUC tau at 312 h [4, 11]: 44.5 ± 18.2 ng·h/mL
- Cmax at 312 h [4, 11]: 9.7 ± 2.5 ng/mL
- AUC tau at 672 h [4, 12]: 35.5 ± 15.8 ng·h/mL
- Cmax at 672 h [4, 12]: 9.9 ± 4.8 ng/mL
- AUC tau at 24 h [4, 13]: 80.6 ± 31.4 ng·h/mL
- Cmax at 24 h [4, 13]: 25.9 ± 8.5 ng/mL
- Cmax at 312 h ([4]; human, blood, 10 mg q.d. oral, Day 13, Mean ± SD): 21.8 ± 7.9 ng/mL
- AUC tau at 672 h [4, 14]: 90.9 ± 35.4 ng·h/mL
- Cmax at 672 h [4, 14]: 24 ± 9.2 ng/mL
- Cmax at 24 h ([4]; human, blood, 20 mg b.i.d. oral, Day 1, Mean ± SD): 41.3 ± 16 ng/mL
- AUC tau at 24 h ([4]; human, blood, 20 mg q.d. oral, Day 1, Mean ± SD): 173 ± 56 ng·h/mL
- AUC tau at 312 h [4, 15]: 253 ± 40.1 ng·h/mL
- Cmax at 312 h [4, 15]: 55.3 ± 21.4 ng/mL
- AUC tau at 672 h [4, 16]: 258 ± 65.9 ng·h/mL
- Cmax at 672 h [4, 16]: 58.3 ± 25.4 ng/mL
- AUC tau at 24 h [4, 17]: 206 ± 64 ng·h/mL
- Cmax at 24 h [4, 17]: 49.1 ± 21.6 ng/mL
- AUC tau at 312 h [4, 18]: 295 ± 60.1 ng·h/mL
- Cmax at 312 h [4, 18]: 54.5 ± 27 ng/mL
- AUC tau at 672 h [4, 19]: 281 ± 32.8 ng·h/mL
- Cmax at 672 h [4, 19]: 41.1 ± 8.4 ng/mL
- AUC(0-t) at 24 h ([4]; human, blood, psoriatic patients, oral, read-out: AUC(0-24) associated with a significant clinical response in the target epithelial tissue): ≥ 400 ng·h/mL
- Trough concentrations associated with a significant clinical response in the target epithelial tissue ([4]; human, in vivo, po): ≥ 7 ng/mL
- factor by which it permeates less through skin than FK506 [5]: 9
- factor by which it permeates less through skin than corticosteroids [5]: 60-120
- loss of original BW ([6]; 30 mg/kg/day p.o.): 7.1%
- colitis, histological inflammation of colon (score 0-8) ([6]; 30 mg/kg/day p.o.): moderate to severe
- block of neutrophil infiltration into the colon (MPO activity) ([6]; 60 mg/kg/day p.o.): 72%
- loss of original BW ([6]; 60 mg/kg/day p.o.): 8.8%
- colitis, histological inflammation of colon (score 0-8) ([6]; 60 mg/kg/day p.o.): moderate
- mice with macroscopically normal feces (diarrhea) ([6]; 100 mg/kg/day p.o.): Approximately half of the mice
- neutrophil infiltration into the colon (MPO activity) ([6]; 100 mg/kg/day p.o.): completely blocked
- loss of original BW ([6]; 100 mg/kg/day p.o.): 3.2%
- colitis, histological inflammation of colon (score 0-8) ([6]; 100 mg/kg/day p.o.): only mildly inflamed colons
- reduction of Haptoglobin production (serum) [6, 20]: 68-92%
- reduction of blood neutrophilia [6, 20]: 85-96%
- reduction of spleen neutrophilia [6, 20]: 74-83%
- lymphocyte numbers in MLN ([6]; up to 100 mg/kg/day p.o.): significant reduction
- lymphocyte numbers in blood or spleen ([6]; up to 100 mg/kg/day p.o.): did not significantly affect
- eosinophil count in the lung and eosinophil peroxidase activity [7]: able to reduce
- antigen-induced pulmonary eosinophilia (pulmonary eosinophilia): effective
